Laboratory results taken from patent US20030220524A1, “Sulfur containing compounds” (priority 2000, published 2003).
Where two headings read alike, the source gives them in different places.

Legend:
leukemic cells = experiment: Cell cycle and apoptosis by fixed PI and TUNEL; type: cell-based, human; conditions: in words
Protocol: Adherent cell lines were plated at 35×10^4 cells/60 cm^2 dish the day before exposure to compound. Suspension cells were seeded at 25×10^4 cells/mL in a 6 well dish (Falcon) the day of exposure to compound. Mononucleated, T-cell depleted normal bone marrow cells were seeded at 50×10^4 cells/mL in a 6 well dish the day of exposure to compound. Cells were exposed to solvent control or approximate MTT50 and MTT30 concentrations of the compound. After 48 h of exposure to the compound, cells were harvested, fixed in 80% ethanol for 1 h on ice and labeled with 50 μg/mL propidium iodide (Sigma). Approximately 10^6 cells were analyzed using a XL-MCL flow cytometer (Coulter Corporation, Miami, Fla.) and a FACScalibar cytometer (Becton Dickinson, San Jose, Calif.). Profiles shown are a representative.
Adherent cell lines were plated at 35×10^4 cells/60 cm^2 dish the day before exposure to compound. Suspension cells were seeded at 25×10^4 cells/mL in a 6 well dish (Falcon) the day of exposure to compound. Mononucleated, T-cell depleted normal bone marrow cells were seeded at 50×10^4 cells/mL in a 6 well dish the day of exposure to compound. Cells were exposed to solvent control or approximate MTT50 and MTT30 concentrations of the compound. After 48 h of exposure to the compound, cells were harvested and fixed with a final concentration of 4% formaldehyde. Fixed cells were stored at −20° C. in 70% ethanol for no more than 5 days. Approximately 10^5 cells were pelleted and labeled with 0.02 mM Biotin-dUTP and 12.5 U TdT enzyme in a 1× reaction buffer (200 mM potassium cacodylate, 25 mM Tris-HCl, 25 μg/mL bovine serum albumin, pH 6.6), 2.5 mM CoCl2 and 0.01 mM dTTP (Roche Molecular Biochemicals, Laval, QC, Canada) for 45 min at 37° C. Samples were washed and incubated in 200 μL of 1:1000 fluorescein isothiocyanate (FITC)-conjugated avidin (Sigma) in 4×SSC, 5% skim milk powder and 0.05% Tween-20 (Sigma). Following 1 h of mixing at room temperature, the samples were washed and resuspended in 500 μL of D-PBS containing 2.5 μg/mL DNase-free RNase (Boehringer Mannheim) and 10 μg/mL PI. Following a 30 min incubation at room temperature, cells were analyzed using a XL-MCL flow cytometer (Coulter Corporation, Miami, Fla.) and a FACScalibar cytometer (Becton Dickinson, San Jose, Calif.). Profiles shown are representative of one experiment.

[1] = tested on: Aspergillus niger and Aspergillus flavus; experiment: Antifungal activity; type: cell-based; conditions: in words; dose not given
Protocol: (§1) Sulfur compounds were tested for antifungal activity against pure cultures of Aspergillus niger and Aspergillus flavus supplied by Ward's Natural Science Ltd (St. Catharines, Ontario, Canada). They were maintained on Sabouraud Dextrose Agar.
(§2) For the test, 6 agar plugs (5 mm diameter) were cut from a 5-8 day old colony and homogenized in distilled, sterilized water (2 ml). A portion of this suspension (0.5 ml) was transferred aseptically to a Petri plate with Sabouraud Dextrose Agar (15 ml) and spread evenly over the entire surface. Each plate was supplied with four evenly spaced paper disks (7 mm, Whatman Number 1 filter paper) containing the test compound (0, 25, 50 and 100 μg respectively). Each test compound was applied to the disks as a solution (50 mg compound/10 ml acetone). Control disks were treated with neat acetone (20 μl). Test plates with fungal homogenates and disks were incubated at 18-20° C. for 2 days. For each test four replicate plates were used. The diameter of the clear zone surrounding the disk was taken as the indicator of antifungal activity.

Aspergillus niger = experiment: Antifungal paper disk test, diameter of clear zone; type: cell-based; conditions: for zone of inhibition at 100 µg/disc: read-out: Diameter (mm) of clear Zone A. niger
Protocol: as §1
as §2, with “Each plate was supplied with four evenly spaced paper disks (7 mm, Whatman Number 1 filter paper) containing the test compound (0, 25, 50 and 100 μg respectively).” left out

Aspergillus flavus = experiment: Antifungal paper disk test, diameter of clear zone; type: cell-based; conditions: for zone of inhibition at 100 µg/disc: read-out: Diameter (mm) of clear Zone A. flavus
Protocol: as §1
as §2, with “Each plate was supplied with four evenly spaced paper disks (7 mm, Whatman Number 1 filter paper) containing the test compound (0, 25, 50 and 100 μg respectively).” left out

[2] = Aspergillus niger, 100 μg/disk, acetone
[3] = Aspergillus flavus, 100 μg/disk, acetone

Question: Which “Cell cycle effect / apoptosis of leukemic cells (fixed PI and TUNEL)” value (“Cell cycle effect / apoptosis” for short) (leukemic cells) does the source give for `c1ccc(SSc2ccccc2)cc1` [D, diphenyl disulphide] here?
Answer: undergo apoptosis in all the phases of the cell cycle

Question: What about the Antifungal activity [1] of the same compound?
Answer: do not possess antifungal activity

Question: What about the zone of inhibition at 100 µg/disc (Aspergillus niger; [2]) of the same compound?
Answer: 0 mm

Question: What about the zone of inhibition at 100 µg/disc (Aspergillus flavus; [3]) of the same compound?
Answer: 0 mm

Question: How did the “Diameter (mm) of clear Zone A. niger” value (Aspergillus niger; 10 μg/disk, acetone, listed as p-CH3SS(C6H4)NO2) turn out when `CSSc1ccc([N+](=O)[O-])cc1` [M, methyl p-nitrophenyl disulphide] was run?
Answer: 3.8 mm

Question: What about the zone of inhibition at 10 µg/disc (Aspergillus niger; Aspergillus niger, 10 μg/disk, acetone) of the same compound?
Answer: 3.9 mm

Question: What about the zone of inhibition at 10 µg/disc (Aspergillus flavus; Aspergillus flavus, 10 μg/disk, acetone) of the same compound?
Answer: 4 mm

Question: How did the Antifungal activity [1] turn out when `CSCSCS(C)(=O)=O` [B] was run?
Answer: do not possess antiproliferative activity on either fungal or mammalian cells

Question: Which “Cell cycle effect / apoptosis” value (leukemic cells) does the source give for `CS(=O)(=O)CSSc1ccccc1` [E, 5-phenyl-2,4,5-trithiapentane 2,2-dioxide] here?
Answer: undergo apoptosis in all the phases of the cell cycle

Question: And the Antifungal activity [1]?
Answer: possess antifungal and anti-mammalian cell activity

Question: What about the zone of inhibition at 25 µg/disc (Aspergillus niger; Aspergillus niger, 25 μg/disk, acetone) of the same compound?
Answer: 0.8 mm

Question: What about the zone of inhibition at 25 µg/disc (Aspergillus flavus; Aspergillus flavus, 25 μg/disk, acetone) of the same compound?
Answer: 1.8 mm

Question: What does the source list for `CCC(=O)OCSSc1ccccc1` [Compound Q, 1-phenyl-1,2-dithiapropyl propionate]?
Answer: Antifungal activity [1]: potent antifungal compound; zone of inhibition at 2.5 µg/disc (Aspergillus niger; Aspergillus niger, 2.5 μg/disk, acetone): 3.5 mm; zone of inhibition at 2.5 µg/disc (Aspergillus flavus; Aspergillus flavus, 2.5 μg/disk, acetone): 2.3 mm

Question: What does the source list for `COC(=O)CSSC` [H, methyl 3,4-dithiopentanoate]?
Answer: Cell cycle effect / apoptosis of leukemic cells (fixed PI and TUNEL) (leukemic cells): accumulation of leukemic cells in the G2/M phase of the cell cycle prior to the cells undergoing apoptosis; Antifungal activity [1]: do not possess antifungal activity; Diameter (mm) of clear Zone A. niger (Aspergillus niger; 100 μg/disk, acetone): 0 mm; Diameter (mm) of clear Zone A. flavus (Aspergillus flavus; 100 μg/disk, acetone): 0 mm

Question: For `CSSCS(=O)(=O)c1ccc(C)cc1` [Compound C, α-p-toluenesulfonyl dimethyl disulphide], which “Cell cycle effect / apoptosis” value (leukemic cells) is on record?
Answer: undergo apoptosis in all the phases of the cell cycle

Question: And the Antifungal activity [1]?
Answer: possess antifungal and anti-mammalian cell activity

Question: And the “Diameter (mm) of clear Zone A. niger” value (Aspergillus niger; 25 μg/disk, acetone)?
Answer: 10.9 mm

Question: What about the “Diameter (mm) of clear Zone A. flavus” value (Aspergillus flavus; 25 μg/disk, acetone) of the same compound?
Answer: 8.0 mm

Question: For `CSCSSC` [Compound N, 2,3,5-trithiahexane], which zone of inhibition at 100 µg/disc (Aspergillus niger; Aspergillus niger) is on record?
Answer: 0 mm

Question: And the zone of inhibition at 100 µg/disc (Aspergillus flavus; Aspergillus flavus)?
Answer: 0 mm

Question: Which results are given for `CS(=O)(=O)CSCS(C)(=O)=O` [G, 2,4,6-trithiaheptane 2,2,6,6-tetraoxide]?
Answer: Antifungal activity [1]: do not possess antiproliferative activity on either fungal or mammalian cells; zone of inhibition at 100 µg/disc (Aspergillus niger; [2]): 0 mm; zone of inhibition at 100 µg/disc (Aspergillus flavus; [3]): 0 mm

Question: Which “Cell cycle effect / apoptosis” value (leukemic cells) does the source give for `CSSCOC(C)=O` [I, 2,3-dithiabutyl acetate] here?
Answer: undergo apoptosis in all the phases of the cell cycle

Question: And the Antifungal activity [1]?
Answer: possess antifungal and anti-mammalian cell activity

Question: And the zone of inhibition at 100 µg/disc (Aspergillus niger; [2])?
Answer: 2.3 mm

Question: And the zone of inhibition at 100 µg/disc (Aspergillus flavus; [3])?
Answer: 2.3 mm

Question: `CS(C)(=O)=O` [Compound A, dimethyl sulfone] was tested. Which Antifungal activity [1] did it give?
Answer: do not possess antiproliferative activity on either fungal or mammalian cells

Question: And the “Diameter (mm) of clear Zone A. niger” value (Aspergillus niger; 100 μg/disk, acetone)?
Answer: 0 mm

Question: And the “Diameter (mm) of clear Zone A. flavus” value (Aspergillus flavus; 100 μg/disk, acetone)?
Answer: 0 mm

Question: What does the source list for `CSSCCS(C)(=O)=O` [F, 2,3,6-trithiaheptane 6,6,-dioxide]?
Answer: Cell cycle effect / apoptosis of leukemic cells (fixed PI and TUNEL) (leukemic cells): accumulation of leukemic cells in the G2/M phase of the cell cycle prior to the cells undergoing apoptosis; Antifungal activity [1]: do not possess antifungal activity; Diameter (mm) of clear Zone A. niger (Aspergillus niger; 100 μg/disk, acetone): 0 mm; Diameter (mm) of clear Zone A. flavus (Aspergillus flavus; 100 μg/disk, acetone): 0 mm
